Several values for one entry are separate records, joined by “and”; a condition that tells them apart may be missing. Equal values may be shown once.
Assays:
[1] = DPPH test (radical scavenger effect); format: biochemical; details: for radical scavenging activity (DPPH test), Mean: Example 8 series, in %; for anti-free-radicals effect (% vs negative control): DPPH test
[2] = system: elastin; experiment: Expression of elastin gene by quantitative RT-PCR in normal human fibroblasts; format: cell-based; details: IL-1b treated fibroblasts, untreated non-irradiated = 1
Experimental: (§1) Their level of expression has been related to the number of cells using the housekeeping gene actin. Expression of the LOXL gene was also followed by quantitative RT-PCR under non-irradiated conditions after application for 24 hours of a Geophila cordifolia extract obtained according to process 1a) at 1%.
(§2) Normal human fibroblasts (NH F) cultivated in a FGM medium (fibroblast growth medium, Promocell) were exposed to a UV stress. A Fisher Bioblock type UVA or UVB source with an electric power of 0.3 mW/cm^2 was used. The UV dose was monitored using a radiometer (VLX 3W) and a CX-312 probe for UVB or a CX-365 probe for UVA. Various UV irradiation conditions were evaluated: For a wavelength of λ=312 nm (UVB) • UVB 5 mJ/cm^2, the exposure time was 30 seconds; • UVB 10 mJ/cm^2, the exposure time was 1 minute;
(§3) Total RNA from the monolayer culture was extracted with the SV96 Total RNA Isolation System® following the manufacturer's instructions. The total RNA was eluted in 100 μl of nuclease-free water and quantified using a spectrophotometer at 260 nm (Molecular Devices Spectramax 190). […]
A quantity of 50 ng of total RNA was amplified by Real Time RT-PCR (Quantitek Sybr Green® kit). The primers used in the RT-PCR experiments (semi-quantitative or real time) were as follows: […]

[3] = system: LOXL; experiment: Expression of LOXL gene by quantitative RT-PCR in normal human fibroblasts; format: cell-based; details: IL-1b treated fibroblasts, untreated non-irradiated = 1
Experimental: as §1, with “The expression of genes for elastin and LOXL was measured using quantitative RT-PCR under standard culture conditions or after irradiation with increasing doses of UVB or UVA. Their” for “Their”
as §2, §3
A quantity of 50 ng of total RNA was amplified by Real Time RT-PCR (Quantitek Sybr Green® kit). […]

[4] = molecular target: MMP-12 (Homo sapiens, UniProt P39900); experiment: Anti-MMP activity, kinetic test with thiopeptide substrate, MMP-12; format: biochemical
Chain of MMP-12 (P39900 106-470): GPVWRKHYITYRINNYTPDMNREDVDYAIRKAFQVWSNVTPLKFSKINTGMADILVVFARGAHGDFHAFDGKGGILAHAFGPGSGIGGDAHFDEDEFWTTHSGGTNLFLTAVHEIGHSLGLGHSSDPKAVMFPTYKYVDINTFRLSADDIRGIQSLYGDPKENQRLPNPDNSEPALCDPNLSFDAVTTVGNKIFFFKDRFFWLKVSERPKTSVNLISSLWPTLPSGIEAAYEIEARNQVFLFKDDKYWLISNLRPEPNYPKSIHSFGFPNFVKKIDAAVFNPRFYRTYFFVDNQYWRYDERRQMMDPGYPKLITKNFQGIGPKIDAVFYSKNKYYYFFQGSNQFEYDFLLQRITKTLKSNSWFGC
Experimental: (§4) Anti-MMP activity was evaluated on matrix metalloproteases MMP-2 and MMP-12.
(§5) The substrat of MMPs is thiopeptide [Ac-PLG-2mercapto-4-methyl-pentanoyl)-LG-OC2H5] (EnzoLifeSciences, P125-9090). The test is carried out in 96-well plates. Different medium are prepared: A <> containing assay buffer and the substrate—Value obtained with blank was deduced from all other conditions. Positive control, NNGH (EnzoLifeSciences, PI 115-9090), which is metalloproteinase inhibitor, diluted at 1/200 in assay buffer. Untreated control, containing assay buffer, MMP and the substrate: this corresponds to 100% MMP activity.
(§6) Other conditions contain assay buffer, MMP, the substrate and the solution to be tested. After 45 min preincubation at 37° C. (to get interaction between MMP and tested product: tested solution or positive control), substrate is added and plate is immediately placed in Plate reader for kinetic measurement of absorbance at 405 nm (maximum absorbance of coloured product resulting from degradation of substrate by MMP). Full plate is read each minute during 20 minutes. After 20 min, a curve reflecting kinetic evolution of MMPs activity is obtained.
(§7) In the linear phase, the slope of the curve provides with MMP activity. The percentage inhibition was calculated with respect to the untreated control according to the formula:
(§8) Inhibition percentage=100−((slope of tested product/Mean of the untreated control slopes)*100)
(§9) This test was performed on MMP-2 and MMP-12. Tested solution containing Geophila cordifiolia extract was obtained according to example 1c) and tested at different concentration.
(§10) Tests used were performed in the same conditions than above described with Geophila cordifolia. Extract of Geophila repens was obtained according to example 7a) and tested at different concentrations.

[5] = molecular target: T1, MMP-2 (Homo sapiens, UniProt P08253); experiment: Anti-MMP activity, kinetic test with thiopeptide substrate, MMP-2; format: biochemical
T1 sequence (P08253 110-660): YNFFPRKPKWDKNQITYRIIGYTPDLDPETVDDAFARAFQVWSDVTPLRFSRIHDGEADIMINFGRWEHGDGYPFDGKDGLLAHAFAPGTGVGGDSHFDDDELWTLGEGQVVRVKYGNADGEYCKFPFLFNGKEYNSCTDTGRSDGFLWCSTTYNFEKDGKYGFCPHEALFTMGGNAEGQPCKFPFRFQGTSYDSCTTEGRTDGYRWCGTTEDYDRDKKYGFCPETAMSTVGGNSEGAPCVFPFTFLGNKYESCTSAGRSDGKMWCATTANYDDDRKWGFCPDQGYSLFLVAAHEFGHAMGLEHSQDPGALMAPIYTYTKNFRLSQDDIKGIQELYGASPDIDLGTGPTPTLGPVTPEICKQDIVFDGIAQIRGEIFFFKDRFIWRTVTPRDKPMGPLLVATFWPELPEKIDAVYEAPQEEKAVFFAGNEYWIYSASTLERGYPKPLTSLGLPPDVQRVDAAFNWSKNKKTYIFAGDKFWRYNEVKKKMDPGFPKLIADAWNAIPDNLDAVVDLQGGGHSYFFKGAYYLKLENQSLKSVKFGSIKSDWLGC
Experimental: as §4, §5, §6, §7, §8, §9, §10

[6] = Lipid peroxidation test (TBARS assay, UV-induced peroxidation); format: biochemical; details: 1% (w/w)
Experimental: The radical scavenger effect was evaluated: • using the standard test with DPPH (1,1-diphenyl-2-picrylhydrazyl) the principle of which is the measurement of the bleaching induced in the presence of anti oxidants; • by the lipid peroxidation method. The TBArs technique means that malondialdehyde (MDA), one of the terminal products formed during the decomposition of polyunsaturated fatty acids mediated by free radicals, can be assayed. It is assayed by condensation in an acidic medium with hot thiobarbituric acid (TBA), thereby forming a pink chromogen which absorbs strongly between 530 and 535 nm. […] The intensity of the colour is directly proportional to the quantity of MDA. The inhibition of UV-induced peroxidation during incorporation of an active agent allows its anti-oxidizing potential to be calculated.
A 5% liposomal suspension was prepared in deionized water. […] A “blank” was also deposited on a non-irradiated control plate for the spectrophotometer reading (water), the non-irradiated positive control measurements and the non-irradiated test measurements (active agent tested at different concentrations). […]
The percentage inhibition was calculated for each test product with respect to the negative control (=100% of generated free radicals meaning 0% anti-free-radicals effect)

[7] = molecular target: T2, HLE (Human Leucocyte Elastase) (Homo sapiens, UniProt P08246); experiment: HLE test (anti-elastase activity, cleavage of coloured peptide substrate); format: biochemical
T2 sequence (P08246 30-267): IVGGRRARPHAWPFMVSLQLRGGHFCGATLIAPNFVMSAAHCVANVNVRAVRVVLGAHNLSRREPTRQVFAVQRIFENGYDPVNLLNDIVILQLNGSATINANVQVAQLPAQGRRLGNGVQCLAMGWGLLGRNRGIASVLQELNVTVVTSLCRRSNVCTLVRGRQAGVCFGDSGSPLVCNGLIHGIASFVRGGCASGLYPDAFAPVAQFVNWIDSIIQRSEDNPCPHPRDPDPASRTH
Experimental: The anti-elastase activity was evaluated using HLE (Human Leucocyte Elastase). […] The principle of this test resides in measuring the degree of cleavage of a coloured peptide substrate by HLE.
The tested products were as follows: • the extract of the invention was prepared in accordance with Example 1a) tested at final concentrations of 0.5%, 1%, 2% and 3% (w/w); • a 0.01% (w/w) solution of ursolic acid was used as the positive inhibition control for inhibition; • no solution was used as the negative control (the reaction buffer for the enzyme replaces the tested product).
The percentage inhibition was calculated for each test product with respect to the negative control (=100% activity i.e. 0% inhibition).
as §10

[8] = system: type I collagen; experiment: Fluorescent immunostaining of type I collagen on monolayer cultured fibroblasts; format: cell-based, human; details: 50 μg/ml
Experimental: Immunofluorescence makes it possible to observe different markers expressed by cells via the use of antibody recognizing these markers. In first step, cells were fixed in cold methanol for 10 minutes. After washing with PBS, antigenic aspecific sites were then blocked for 1 hour with PBS-BSA 1% solution (Bovine serum albumin). Primary antibody diluted at 1% in PBS/BSA 1% was incubated with cells for 1 hour. On the negative control is added IgG control isotope (instead of primary antibody). The excess of anti-body which has not been attached is removed by 2 washings with PBS. Cells were incubated out of light with a solution of secondary antibodies able to recognize primary antibody. This secondary antibody being linked with fluorochrome (Alexa Fluor 488), it makes it possible to see protein with florescent microscopy. Cells were then gently washed 3 times with PBS, and slides covered with mounting medium containing DAPI (Vector®, Vectashield), a nuclear colouring agent. Slides were stored out of light to maintain fluorescence of fluorochrome and analysed with confocal microscopy. Antibodies used in this test were: • primary antibody: collagen 1: rabbit anti-human type I collagen, polyclonal, diluted 1/200 (Novotech 20111) • primary antibody: Isotype IgG1: rabbit IgG1 isotype, ready to use (Zymed Laboratories 08-6199) • secondary antibody: goat anti-rabbit IgG coupled with Alexa fluor 488, polyclonal, diluted 1/1000 (in Vitrogen A11008) Cells used for immunostaining were obtained from fibroblasts from donor […]. Geophila cordifolia obtained according to example 1c) was tested at 1% (diluted in water). Fluorescent Immunostaining of type I collagen on monolayer cultured fibroblasts treated with vegetal extract obtained from example 1c) (magnification 400×, scale bar=25 μm).

[9] = NNGH diluted at 1/200 in assay buffer
[10] = positive control, Example 8 series

Molecule: N[C@@H](CS)C(=O)O [Cysteine, cysteine]
- radical scavenging activity (DPPH test), Mean ([1]; 2.5 mg/l): 68.52
- radical scavenging activity (DPPH test), Mean ([1]; 5 mg/l): 79.49
- anti-free-radicals effect (% vs negative control) ([1]; 2.5 mg/l): 47.6%
- anti-free-radicals effect (% vs negative control) ([1]; 5 mg/l): 83.1%

Molecule: IL-1b: IL-1b treatment group of fibroblasts in Table 6; not described in the method
- Gene/actin, ELN ([2]; single replicates): 11.02 and 28.48 and 10.07 and 9.393
- Gene/actin, ELN, Mean [2]: 14.74
- Gene/actin, LOXL ([3]; single replicates): 1.108 and 0.9779 and 1.139 and 1.246
- Gene/actin, LOXL, Mean [3]: 1.12

Molecule: COc1ccc(S(=O)(=O)N(CC(=O)NO)CC(C)C)cc1 [NNGH]
- MMP-12 inhibition, Mean (%) [4, 9]: 58.63^+++ %
- inhibition of MMP-12 activity (in words) ([4]; positive control, 1/200): strongly and significantly inhibits
- anti-MMP 12 effect, mean [4, 10]: 72.5825
- MMP-2 inhibition, Mean (%) [5, 9]: 73.43^+++ %
- inhibition of MMP-2 activity (in words) ([5]; positive control, 1/200): strongly and significantly inhibits
- anti-MMP2 effect, mean [5, 10]: 62.51

Molecule: vitamin E
- anti-free-radicals effect (% vs negative control) [6]: 54.7%

Molecule: C[C@H]1[C@H](C)CC[C@]2(C(=O)O)CC[C@]3(C)C(=CC[C@@H]4[C@@]5(C)CC[C@H](O)C(C)(C)[C@@H]5CC[C@]43C)[C@H]12 [Ursolic acid, ursolic acid]
- HLE inhibition (%) ([7]; 0.01% (w/w)): 85%
- anti-elastase activity (HLE test), mean ([7]; 0.01%, Example 8 series): 90.47

Molecule: O=C1O[C@H]([C@@H](O)CO)C(O)=C1O [vitamin C]
- anisotropy of collagen type I fibres ([8]; day 3): high anisotropy
- type I collagen labelling ([8]; day 3): a fibrillar labelling, being more external to the cell
- anisotropy of collagen type I fibres ([8]; day 5): anisotropy is increased
- type I collagen labelling ([8]; day 5): labelling is not so intense and fibres are more oriented in one way and thinner

From patent US20130028849A1, “Agent For Stimulating The Expression of Loxl” (BASF Beauty Care Solutions France S.A.S., priority 2009, published 2013)
